From patent US10772887B2, “Anti-HTLV-1 drug and therapeutic agent for HTLV-1-associated myelopathy/tropical spastic paraparesis (HAM/TSP)” (Kagoshima University, priority 2016, dated 2020)
Several values for one entry are separate records, joined by “and”; a condition that tells them apart may be missing. Equal values may be shown once.

How the values were obtained:
[1] = system: HTLV-1 pX (proviral load) in live cells of PBMCs from HAM cases; experiment: PMA-HTLV-1 viability PCR, PBMCs from HAM cases; assay type: cell-based; parameters: key to ΔCτ Drug Mean: ΔCτ = CτD−P+ − CτD+P+ (Cτ shift by drug, PMA-treated); details: N=16
Procedure: PBMCs from 16 HAM cases frozen and preserved in liquid nitrogen were used.
A PMA stock solution (20 mM, frozen and preserved at −20° C. under light protection) was added to cell samples to yield a final concentration of 50 μM, and the tubes were incubated in a dark place (wrapped in aluminum foil) at room temperature for 5 minutes (each tube was sometimes flicked by fingers for mixing).
A photo-crosslinker and a halogen lamp were always used to perform photo-crosslinking using a household 100-V AC power source. The cell specimen volume was adjusted by appropriately adding PBS to 200 μL and irradiation was carried out for 5 minutes at a position 20 cm away from the halogen lamp in the dark. […] Each sample tube was sometimes flicked by fingers for mixing
Frozen PBMC specimens were thawed in a water bath at 37° C. and washed twice with PBS at 300×g, and then, the pellet was suspended in 1 mL of PBS and placed on ice. The cell concentration was counted by the trypan blue exclusion method using a hemocytometer.
Approximately 5×10^5 to 1×10^6 cells were collected in two Eppendorf tubes and the solution volume was adjusted to 200 μL by adding PBS if appropriate. One of the tubes was subjected to PMA treatment and photo-crosslinking, and the other tube was not treated in the same manner. DNA was extracted from both tubes using DNeasy Blood & Tissue Kits (QIAGEN).
To the remaining liquid of the cell suspension of each cell specimen, approximately 7.5 mL of cell medium RPMI1640 (supplemented with 10% of fetal calf serum and 1% of penicillin-streptomycn) was added to adjust the total volume to 8.0 mL+α. Each mixture was plated in a volume of approximately 2000 μL on a 6-well polystyrene plate such that 4 wells were used per cell specimen.
After adding the drug, each mixture was gently shaken on a shaker and incubation was started at 37° C. in a 5% CO2 incubator.
At T=6 h, about a half volume of the cell suspension of each well was harvested, collected in an Eppendorf tube, and centrifuged at 3,500 rpm×10 min. The supernatant was discarded, and the pellet was resuspended with 1 mL of PBS. Centrifugation was performed again at 3,500 rpm×10 min, and the supernatant was discarded, followed by washing. PBS was added to yield a volume of 200 μL, and all specimens were subjected to PMA treatment and photo-crosslinking. Subsequently, the specimens were washed with PBS again, and DNA was extracted with DNeasy Blood & Tissue Kits (QIAGEN).
The procedures were performed as in the case of T=6 h described in (1-2-5) above. DNA samples were named, for example, “Sample No-Imatinib600 nM-12 h.”
The DNA concentration was measured by ND-1000 (Thermo Fisher Scientific), and DNA was prepared in an amount (10 ng/μL×triplicate or more) sufficient for real-time PCR to be performed in triplicate. DNA was frozen and preserved at −20° C. until use.
According to the protocol (for the PCR system of 25 μL in total) of TaqMan Universal Master Mix II (#4440044, Thermo Fisher Scientific), 20 μM forward and reverse primers, 8 μM TaqMan probes, 2× Universal Master Mix II, and D2 W were mixed. The mixture was pipetted in a volume of 25 μL into each of triplicate wells of a MicroAmp Fast 96-well Reaction Plate (0.1 mL) (REF 4346907, Applied Biosystems) provided with MicroAmp Optical Adhesive Film (P/N 4311971, Applied Biosystems).
A standard dilution series for standard curve creation was prepared from the following five points for pX: NTC (No Template Control); 2 copies/μL (10 copies at 5 μL); 20 copies/μL (100 copies at 5 μL); 200 copies/μL (1000 copies at 5 μL); and […] (10000 copies at 5 μL).
The thermal cycle program was carried out using the StepOne Plus real-time PCR system (Applied Biosystems) and StepOne software ver. 2.3 with 1 cycle in a holding stage at 50° C.×2 minutes and 95° C.×10 minutes and 45 cycles of amplification at 95° C.×15 seconds and 60° C.×1 minute.
Index of the Cτ extension effect by ABL1 inhibitor treatment: ΔCτDrug=CτD−P+−CτD+P+ [Formula 3]

[2] = system: HTLV-1 pX (proviral load) in live cells of PBMCs from AC-derived cases; experiment: PMA-HTLV-1 viability PCR, PBMCs from AC-derived cases; assay type: cell-based
Procedure: PBMCs (1×10^7 cells) from 14 AC-derived cases frozen and preserved in liquid nitrogen were used.
Specimens frozen and preserved in liquid nitrogen were thawed in a water bath at 37° C. and washed twice with approximately 10 mL of PBS at 300×g during centrifugation for 10 minutes, and resuspended in 1 mL of PBS. The cell concentration was counted by the trypan blue exclusion method. Thereafter, each specimen was divided into two groups such that each group includes approximately 100,000 PBMCs. One of the groups was not subjected to PMA treatment, and the other group was subjected to PMA treatment. The sample groups were named “Sample No-Drug-P−” and “Sample No-Drug-P+,” respectively.
A PMA stock solution was added to the sample named “Sample No-Drug-P+” to yield a final concentration of 50 μM in the manner described in Example 2, occasionally shaken under light protection at room temperature for 5 minutes for PMA treatment, and treated with a photo-crosslinker under a halogen lamp for crosslinking during air-cooling for 5 minutes. Genomic DNA was extracted from both samples including the former sample which was not subjected to PMA treatment using DNeazy Blood & Tissue Kits (Cat No 69504, QIAGEN).
RPMI1640 (supplemented with 10% fetal bovine serum, 1% penicillin, and streptomycin) in a volume of 7 mL+α was added to the cell suspension remaining after preparing the two samples in (4-1-2), followed by vortexing. […] After mixing with a shaker for a short period of time, the cells were cultured in a 5% CO2 incubator.
After T=6 h, each specimen was subjected to PMA treatment and crosslinking, and then, genomic DNA was extracted therefrom according to the method described in Example 2.
PMA treatment and DNA extraction were carried out according to the method described in Example 2. Accordingly, 10 samples of genomic DNA from each AC sample to be tested, that is to say, 140 samples from 14 specimens, were prepared.
In this Example, the methods described in Example 2 were used for DNA concentration measurement, working solution preparation, real-time PCR, and the method for calculating PMA-HTLV-1 viability PCR indexes.
All samples were examined at N=14.

[3] = system: HTLV-1 proviral load (PVL); experiment: Peripheral blood PVL before and after oral imatinib in an anti-HTLV-1 antibody-positive CML patient with HAM; assay type: in vivo, human; details: 2844 copies before drug administration, one patient
[4] = system: HAM-derived CD4+ T cells
[5] = system: NC-derived CD4+ T cells; details: 5 μM, 24-hour treatment, FIG. 2 A/B
[6] = system: HAM-derived non-CD4-PBMCs; details: 5 μM, 24-hour treatment, FIG. 2 C/D
[7] = system: NC-derived non-CD4-PBMCs; details: 5 μM, 24-hour treatment, FIG. 2 C/D
[8] = read-out: Cmax concentration; based on package inserts / in vivo dynamics data; concentration examined in terms of Cmax; cited from earlier work

For `Cc1ccc(NC(=O)c2ccc(CN3CCN(C)CC3)cc2)cc1Nc1nccc(-c2cccnc2)n1` [imatinib], the “pX decrease rate in live cells (%) Mean” value ([1]; Imatinib 600 nM, 6 h) was 50.35%, the “ΔCτ Drug Mean” value ([1]; Imatinib 600 nM, 6 h) was −1.30 and the “pX decrease rate in live cells (%) Mean” value ([1]; Imatinib 600 nM, 12 h) was 66.37%. For the same molecule, the “ΔCτ Drug Mean” value ([1]; Imatinib 600 nM, 12 h) was −1.96, the “pX decrease rate in live cells (%) Mean” value ([1]; Imatinib 5 μM, 6 h) was 43.37% and the “ΔCτ Drug Mean” value ([1]; Imatinib 5 μM, 6 h) was −0.99. For the same molecule, the “pX decrease rate in live cells (%) Mean” value ([1]; Imatinib 5 μM, 12 h) was 44.99%, the “ΔCτ Drug Mean” value ([1]; Imatinib 5 μM, 12 h) was −1.49 and the “pX decrease rate in live cells (%) Mean” value ([2]; Imatinib 600 nM, 6 h, N=14) was 23.83%. The “ΔCτ Drug Mean” value ([2]; Imatinib 600 nM, 6 h, N=14) was −0.28, the “pX decrease rate in live cells (%) Mean” value ([2]; Imatinib 600 nM, 12 h, N=14) was “approximately 45%” and the “ΔCτ Drug Mean” value ([2]; Imatinib 600 nM, 12 h, N=14) was −0.98. For the same molecule, the “pX decrease rate in live cells (%) Mean” value ([2]; Imatinib 600 nM, 12 h, N=14, listed as Imatinib) was 45.46%, the “pX decrease rate in live cells (%) Mean” value ([2]; Imatinib 5 μM, 6 h, N=14) was 51.65% and the “ΔCτ Drug Mean” value ([2]; Imatinib 5 μM, 6 h, N=14) was −1.45. For the same molecule, the “pX decrease rate in live cells (%) Mean” value ([2]; Imatinib 5 μM, 12 h, N=14) was 58.25%, the “peripheral blood PVL” value ([3]; 1 year and 5 months after drug administration) was 448 copies/10^4 PBMCs and the “peripheral blood PVL” value ([3]; after 5 months of drug administration, oral 400 then 300 mg/day) was 1138 copies.
In the case of `Cc1cn(-c2cc(NC(=O)c3ccc(C)c(Nc4nccc(-c5cccnc5)n4)c3)cc(C(F)(F)F)c2)cn1` [nilotinib], the “pX decrease rate in live cells (%) Mean” value ([1]; Nilotinib 30 nM, 6 h) is reported as 69.51%, the “ΔCτ Drug Mean” value ([1]; Nilotinib 30 nM, 6 h) is reported as −2.03 and the “pX decrease rate in live cells (%) Mean” value ([1]; Nilotinib 30 nM, 12 h) is reported as 78.00%. For the same molecule, the “ΔCτ Drug Mean” value ([1]; Nilotinib 30 nM, 12 h) was −2.63, the “pX decrease rate in live cells (%) Mean” value ([1]; Nilotinib 3 μM, 6 h) was 53.82% and the “ΔCτ Drug Mean” value ([1]; Nilotinib 3 μM, 6 h) was −0.86. The “pX decrease rate in live cells (%) Mean” value ([1]; Nilotinib 3 μM, 12 h) was 36.19%, the “ΔCτ Drug Mean” value ([1]; Nilotinib 3 μM, 12 h) was −1.46 and the “pX decrease rate in live cells (%) Mean” value ([2]; Nilotinib 30 nM, 6 h, N=14) was 53.23%. For the same molecule, the “ΔCτ Drug Mean” value ([2]; Nilotinib 30 nM, 6 h, N=14) was −1.26, the “pX decrease rate in live cells (%) Mean” value ([2]; Nilotinib 30 nM, 12 h, N=14) was ~71% and 71.38% and the “ΔCτ Drug Mean” value ([2]; Nilotinib 30 nM, 12 h, N=14) was −1.56. The “pX decrease rate in live cells (%) Mean” value ([2]; Nilotinib 30 nM, 12 h, N=14, listed as Nilotinib) was 71.38%, the “pX decrease rate in live cells (%) Mean” value ([2]; Nilotinib 3 μM, 6 h, N=14) was 50.50% and the “ΔCτ Drug Mean” value ([2]; Nilotinib 3 μM, 6 h, N=14) was −1.05. The “pX decrease rate in live cells (%) Mean” value ([2]; Nilotinib 3 μM, 12 h, N=14) was 58.56%, the “ΔCτ Drug Mean” value ([2]; Nilotinib 3 μM, 12 h, N=14) was −1.36 and the “cell death of HAM-derived CD4+ T cells” value [4] was “cause cell death to occur”. The “cell death of NC-derived CD4+ T cells” value [5] was “cell death does not occur”, the “cell death of non-CD4-PBMCs, HAM” value [6] was “significantly observed” and the “cell death of non-CD4-PBMCs, NC” value [7] was “significantly observed”. The Cmax [8] was 3000 nM.
